Patent US20050112573A1, “Method of detecting toxic substance” (priority 2001, published 2005)

Test system: yeast genes (level of expressed mRNA)
Experiment: DNA chip analysis of expressed mRNA of yeast genes after 2 h culture with a toxic chemical substance
Assay type: cell-based, Saccharomyces cerevisiae S288C
Description: Yeast (Saccharomyces cerevtisiae S288C (α SUC2mal mel gap2 CUP1)) were cultured at 25° C. on YPD medium (yeast extract 1%, polypepton 2%, glucose 2%). One of toxic chemical substances was added to the cell at logarithmic growth phase, and the cell was further cultured for two hours. Cell was cultured without any chemical substance in the same condition, and was used as control. Concentrations of the chemical substances were defined to inhibit the growth of the yeast but not lead to death.
After the completion of cultivation, the culture was centrifuged to collect the cells. To the cells, sodium acetate buffer (50 mM sodium acetate, 10 mM EDTA, 1% SDS) was added, and the mixture was shaken at 65° C. for five minutes, followed by returning to room temperature, and obtaining the supernatant, which procedure was repeated two times. To the supernatant, ½ amount of a solution of phenol/chloroform was added, and the mixture was centrifuged to give a supernatant, which was added with an equal amount of chloroform, and the mixture was centrifuged to give a supernatant. To the supernatant, an equal amount of isopropanol containing 0.3 M sodium acetate was added, and the mixture was allowed to stand at room temperature for 30 minutes, after which the mixture was centrifuged to give a sediment of the whole RNAs. Seventy % ethanol was added to the sediment, and the mixture was again centrifuged to give a sediment, which was then dried and dissolved in water. mRNA was isolated from the whole RNAs as followings. In view of the fact that a poly A chain is attached to the 3′ terminus of mRNA, a polynucleotide having a poly T structure which was immobilized on the surface of latex beads was used to trap the mRNA, and then the mRNA was washed and eluted with spine column (Oligotex-dT30<Super>mRNA Purification Kit, Takara). Reverse transcription of the mRNA was conducted with a reverse transcriptase (Super Script II Reverse Transcriptase; catalogue No. 18064-014, GibcoBRL) using fluorescence-labeled nucleotides to give cDNAs that were introduced with Cy3-dUTP or Cy5-dUTP during the reverse transcription.
The labeled cDNAs were dissolved in TE buffer (10 mM Tris-HCl/1 mM EDTA, pH8.0), and the solution was dropped on the DNA chip containing the whole genes of yeast (DNA Chip Research Inc. Japan) so that the cDNAs were hybridized on the DNA chip at 65° C. for over 12 hours. The fluoresces intensity of the DNA chip was read with a scanner, and the ratio relative to the fluorescence intensity resulting from the absence of chemical substance was estimated as the following, which is shown in Tables 1 to 9: [formula]
In the Tables, “Intensity” indicated in the rightmost column is a value of the level of expressed mRNA of each gene in control cells as divided by the average level of the expressions of the whole genes.

SMILES: Oc1cc(Cl)c(Cl)cc1Cl [(6), 2,4,5-trichlorophenol]
- The level of expressed mRNA in the presence of chemical substance/The level of expressed mRNA in the absence of chemical substance (yeast gene YKL013C): 1.9
- The level of expressed mRNA in the presence of chemical substance/The level of expressed mRNA in the absence of chemical substance (yeast gene YKL039W): 4.9
- The level of expressed mRNA in the presence of chemical substance/The level of expressed mRNA in the absence of chemical substance (yeast gene YKL041W): 2.2
- The level of expressed mRNA in the presence of chemical substance/The level of expressed mRNA in the absence of chemical substance (yeast gene YKL096W): 0.6
- The level of expressed mRNA in the presence of chemical substance/The level of expressed mRNA in the absence of chemical substance (yeast gene YKL165C): 0.6
- The level of expressed mRNA in the presence of chemical substance/The level of expressed mRNA in the absence of chemical substance (yeast gene YKL193C): 0.9
- The level of expressed mRNA in the presence of chemical substance/The level of expressed mRNA in the absence of chemical substance (yeast gene YLR120C): 1.9
- The level of expressed mRNA in the presence of chemical substance/The level of expressed mRNA in the absence of chemical substance (yeast gene YLR136C): 1.7
- The level of expressed mRNA in the presence of chemical substance/The level of expressed mRNA in the absence of chemical substance (yeast gene YLR178C): 4.2
- The level of expressed mRNA in the presence of chemical substance/The level of expressed mRNA in the absence of chemical substance (yeast gene YLR250W): 1.1
- The level of expressed mRNA in the presence of chemical substance/The level of expressed mRNA in the absence of chemical substance (yeast gene YLR327C): 5.1
- The level of expressed mRNA in the presence of chemical substance/The level of expressed mRNA in the absence of chemical substance (yeast gene YLR356W): 3.4
- The level of expressed mRNA in the presence of chemical substance/The level of expressed mRNA in the absence of chemical substance (yeast gene YLR362W): 0.8
- The level of expressed mRNA in the presence of chemical substance/The level of expressed mRNA in the absence of chemical substance (yeast gene YLR391W): 1.5
- The level of expressed mRNA in the presence of chemical substance/The level of expressed mRNA in the absence of chemical substance (yeast gene YLR429W): 0.8
- The level of expressed mRNA in the presence of chemical substance/The level of expressed mRNA in the absence of chemical substance (yeast gene YMR004W): 0.5
- The level of expressed mRNA in the presence of chemical substance/The level of expressed mRNA in the absence of chemical substance (yeast gene YMR094W): 0.5
- The level of expressed mRNA in the presence of chemical substance/The level of expressed mRNA in the absence of chemical substance (yeast gene YMR104C): 1.9
- The level of expressed mRNA in the presence of chemical substance/The level of expressed mRNA in the absence of chemical substance (yeast gene YMR219W): 0.8
- The level of expressed mRNA in the presence of chemical substance/The level of expressed mRNA in the absence of chemical substance (yeast gene YMR226C): 2.6
- The level of expressed mRNA in the presence of chemical substance/The level of expressed mRNA in the absence of chemical substance (yeast gene YMR275C): 1.4
- The level of expressed mRNA in the presence of chemical substance/The level of expressed mRNA in the absence of chemical substance (yeast gene YMR276W): 0.8
- The level of expressed mRNA in the presence of chemical substance/The level of expressed mRNA in the absence of chemical substance (yeast gene YMR314W): 1.3
- The level of expressed mRNA in the presence of chemical substance/The level of expressed mRNA in the absence of chemical substance (yeast gene YNL006W): 1.0
- The level of expressed mRNA in the presence of chemical substance/The level of expressed mRNA in the absence of chemical substance (yeast gene YNL007C): 0.6
- The level of expressed mRNA in the presence of chemical substance/The level of expressed mRNA in the absence of chemical substance (yeast gene YNL093W): 1.6
- The level of expressed mRNA in the presence of chemical substance/The level of expressed mRNA in the absence of chemical substance (yeast gene YNL333W): 1.5
- The level of expressed mRNA in the presence of chemical substance/The level of expressed mRNA in the absence of chemical substance (yeast gene YNR010W): 1.3
- The level of expressed mRNA in the presence of chemical substance/The level of expressed mRNA in the absence of chemical substance (yeast gene YNR069C): 1.7
- The level of expressed mRNA in the presence of chemical substance/The level of expressed mRNA in the absence of chemical substance (yeast gene YOL013C): 1.1
- The level of expressed mRNA in the presence of chemical substance/The level of expressed mRNA in the absence of chemical substance (yeast gene YOL164W): 1.2
- The level of expressed mRNA in the presence of chemical substance/The level of expressed mRNA in the absence of chemical substance (yeast gene YOR036W): 1.7
- The level of expressed mRNA in the presence of chemical substance/The level of expressed mRNA in the absence of chemical substance (yeast gene YOR117W): 1.1
- The level of expressed mRNA in the presence of chemical substance/The level of expressed mRNA in the absence of chemical substance (yeast gene YOR124C): 0.9
- The level of expressed mRNA in the presence of chemical substance/The level of expressed mRNA in the absence of chemical substance (yeast gene YOR132W): 1.6
- The level of expressed mRNA in the presence of chemical substance/The level of expressed mRNA in the absence of chemical substance (yeast gene YOR157C): 1.2
- The level of expressed mRNA in the presence of chemical substance/The level of expressed mRNA in the absence of chemical substance (yeast gene YOR181W): 0.9
- The level of expressed mRNA in the presence of chemical substance/The level of expressed mRNA in the absence of chemical substance (yeast gene YOR185C): 3.0
- The level of expressed mRNA in the presence of chemical substance/The level of expressed mRNA in the absence of chemical substance (yeast gene YOR198C): 0.9
- The level of expressed mRNA in the presence of chemical substance/The level of expressed mRNA in the absence of chemical substance (yeast gene YOR259C): 0.8
- The level of expressed mRNA in the presence of chemical substance/The level of expressed mRNA in the absence of chemical substance (yeast gene YOR261C): 1.4
- The level of expressed mRNA in the presence of chemical substance/The level of expressed mRNA in the absence of chemical substance (yeast gene YOR288C): 1.0
- The level of expressed mRNA in the presence of chemical substance/The level of expressed mRNA in the absence of chemical substance (yeast gene YOR355W): 1.6
- The level of expressed mRNA in the presence of chemical substance/The level of expressed mRNA in the absence of chemical substance (yeast gene YOR383C): 6.8
- The level of expressed mRNA in the presence of chemical substance/The level of expressed mRNA in the absence of chemical substance (yeast gene YPL089C): 0.8
- The level of expressed mRNA in the presence of chemical substance/The level of expressed mRNA in the absence of chemical substance (yeast gene YPL109C): 1.2
- The level of expressed mRNA in the presence of chemical substance/The level of expressed mRNA in the absence of chemical substance (yeast gene YPL149W): 0.9
- The level of expressed mRNA in the presence of chemical substance/The level of expressed mRNA in the absence of chemical substance (yeast gene YPL154C): 3.5
- The level of expressed mRNA in the presence of chemical substance/The level of expressed mRNA in the absence of chemical substance (yeast gene YPR103W): 1.2
- The level of expressed mRNA in the presence of chemical substance/The level of expressed mRNA in the absence of chemical substance (yeast gene YPR108W): 1.5
